Patent publication US7094770B2, “3′-or 2′-hydroxymethyl substituted nucleoside derivatives for treatment of hepatitis virus infections” (Pharmasset, Ltd., priority 2000, dated 2006)
Read-outs that look alike come from different tables or passages of the source.

How the values were obtained:
[1] = Cytotoxicity in PBM cells; format: cell-based, human; conditions: human
Procedure: (§1) We also perform toxicity assays by measuring the inhibition of uptake of […] dye by treated cells. These assays are done in 96 well plates. After the standard 10 day treatment regimen medium is removed and PBS containing MTS dye added to each well. After a 2 hour incubation the absorbance of the metabolized product is measured at 490 nm.
(§2) Human PBM cells from healthy donors, seronegative for HIV-1 and HBV, are isolated by a single-step Ficoll-Hypaque discontinuous gradient centrifugation and propagated as described previously (Schinazi et al., Antimicrobial Agents Chemother., 1990, 34:1061; 1992, 36:2423; 1993, 37:875). Compounds are screened for activity against HIV-1 and cytotoxicity by a protocol reported previously reported by Schinazi, et al. The prototype strain of HIV-1LAI obtained from the Centers for Disease Control and Prevention, Atlanta, Ga., is used as the standard virus for the studies in human PBM cells.

[2] = Cytotoxicity in Vero cells; format: cell-based; conditions: African green monkey
Procedure: as §1

HIV-1 = experiment: Anti-HIV evaluation in human PBM cells; format: cell-based; conditions: for EC50: HIV-1
Description: as §2

HBV = experiment: Cell culture assay for anti-HBV activity (2.2.15 cells, HBV DNA in medium by Southern blot); format: cell-based, Hepatitis B virus; conditions: for EC50: read-out: Anti-HBV EC50; for Antiviral activity (in words): virus not named
Description: We follow the protocol described by Korba and Gerin(Antiviral Res., 1992, 19:55) and Pai et al. (Antimicrobial Agents Chemother., 1996, 40:380) which is used widely in the field. The HepG 2 2.2.15 cells contain a stably integrated HBV genome, the transcript from which serves as a template for viral replication. The cells produce virions which are elaborated into the medium. The production of the virion DNA is monitored by analysis of medium by Southern blotting. Drugs which inhibit viral replication reduce the levels of virion DNA in the medium, relative to controls.
Confluent cells in 24 well tissue culture dishes are treated with test compounds starting at 1 nM and extending logarithmically to 10 μM (1 nM, 3.2, 10 nM, 32, 100 nM, 1 μM, 10 μM […]). Medium is changed […] every 3 days and DNA extracted from the 3, 6, and […] day samples. The virions are concentrated by polyethylene glycol precipitation (equal volume addition of PEG 8000). After cooling on ice the samples are spun and the pellets treated with SDS and Proteinase K followed by Phenol:Chloroform extraction and ethanol precipitation of the DNA. The DNA is analyzed for HBV sequences by Southern hybridization. The probe used for the analysis is a ^32P labeled Eco RI fragment from the HBV clone described by Korba et al. 3TC is used as a positive control compound with known activity against HBV.
System: The most widely used system for the study of anti-HBV agents is the hepatoma cell culture system with the HBV genome. These cells are designated as the 2.2.15 cells, AD38 cells and AD79 cells. The 2.2.15 cells were generated by the transfection of the human hepatoma cells—HepG2 with HBV DNA. (Sells, et al., Proc. Natl. Acad. Sci. USA 84:1005–1009, 1987) HBV viral replication takes place in these cells. The HBV replication can be monitored intracellularly as well as extracellularly in these cells.
Assay for Anti-HBV agents: 2.215 cells are grown in multi-well dishes in RPMI medium supplemented with 4% fetal bovine serum. After 3 to 4 days of growing the cells, they are treated with varying concentrations of the test compound(s). The test compounds are dissolved in DMSO or sterile water. Cultures without the addition of the test compounds serve as controls. The addition of the test compound(s) is repeated at 3-day intervals. The medium is changed and replaced with appropriate concentration of the test compound. At the end of the 9-day treatment period, the culture medium is harvested and processed for viral DNA. The viral DNA thus obtained is analyzed by Southern blot analysis. After the Southern transfer, the blot is subjected to hybridization to an HBV specific probe to detect HBV DNA. The hybriodization is carried out overnight. After the hybridization, free probe is removed by washing of the blots. The specific hybridization is visualized by autoradiography. Inhibition produced by the test compound is calculated with reference to the levels of HBV DNA in the control samples.

[3] = Cytotoxicity in CEM cells; format: cell-based; conditions: human
Procedure: as §1

[4] = Human immunodeficiency virus 1, PBMC

Row | SMILES | IC50 [1] [µM] | IC50 at 10 day [2] [µM] | EC50 (HIV-1; [4]) [µM] | EC50 (HBV; Hepatitis B virus) [µM] | EC50 (HIV-1) [µM] | EC50 (HBV) [µM] | Antiviral activity (in words) (HBV) | IC50 at 10 day [3] [µM] | Inhibition of HIV replication (in words) (HIV-1) | Inhibition of HBV replication (in words) (HBV)
1 | Cc1cn(C2CC(CCl)C(CO)O2)c(=O)[nH]c1=O (stereo not shown) [Compound 3 (Series 1)] | > 100 | > 100 | > 100 | > 10 | – | – | – | – | – | –
2 | Cc1cn(C2CC(CO)C(CO)O2)c(=O)[nH]c1=O (stereo not shown) [Compound 20 (Series 1)] | > 100 | > 100 | – | – | 0.8 | 0.23 | moderate activity | > 100 | – | –
3 | Cc1cn(C2OC(CO)C(CO)C2F)c(=O)nc1N (stereo not shown) [Compound 2 (Series 2)] | > 100 | > 100 | > 100 | > 10 | – | – | – | – | – | –
4 | CCCCN(O)C1C(CO)OC(n2cc(C)c(=O)[nH]c2=O)C1F (stereo not shown) [Compound 71 (Series 2)] | 13 | 68.5 | 81.4 | < 10 | – | – | moderate activities | 30.1 | – | –
5 | CN1OC(n2ccc(N)nc2=O)CC1CO (stereo not shown) [Compound 39 (Series 2)] | > 100 | > 100 | > 100 | > 10 | – | – | – | > 100 | – | –
6 | O=c1ccn(C2OC(CO)C(CO)C2F)c(=O)[nH]1 (stereo not shown) [Compound 13 (Series 2)] | > 100 | > 100 | > 100 | > 10 | – | – | – | > 100 | – | –
7 | Cc1cn(C2CC3COCC3O2)c(=O)[nH]c1=O (stereo not shown) [Compound 1 (Series 1)] | > 100 | > 100 | > 100 | > 10 | – | – | – | – | – | –
8 | CNC1C(CO)OC(n2cc(C)c(=O)[nH]c2=O)C1F (stereo not shown) [Compound 68 (Series 2)] | > 100 | > 100 | > 100 | > 10 | – | – | – | > 100 | – | –
9 | Nc1ccn(C2OC(CO)C(CCO)C2F)c(=O)n1 (stereo not shown) [Compound 24 (Series 2)] | > 100 | > 100 | > 100 | > 10 | – | – | – | > 100 | – | –
10 | CNC1C(CO)OC(n2ccc(=O)[nH]c2=O)C1F (stereo not shown) [Compound 69 (Series 2)] | > 100 | > 100 | > 100 | > 10 | – | – | – | > 100 | – | –
11 | CC1C(CO)OC(n2ccc(N)nc2=O)C1F (stereo not shown) [Compound 20 (Series 2)] | > 100 | > 100 | > 100 | > 10 | – | – | – | > 100 | potent inhibitors | potent inhibitors
12 | CC1=CC(C2CC(CO)N(C)O2)C(=O)NC1=O (stereo not shown) [Compound 5 (Series 2)] | > 100 | – | > 100 | > 10 | – | – | – | – | – | –
13 | Cc1cn(C2CC(CO)=NO2)c(=O)[nH]c1=O (stereo not shown) [Compound 28 (Series 2)] | > 100 | > 100 | > 100 | > 10 | – | – | – | > 100 | – | –
14 | CN(O)C1C(CO)OC(n2cc(F)c(=O)[nH]c2=O)C1F (stereo not shown) [Compound 60 (Series 2)] | > 100 | > 100 | > 100 | > 10 | – | – | – | > 100 | – | –
15 | Cc1cn(C2CC(CI)C(CO)O2)c(=O)[nH]c1=O (stereo not shown) [Compound 5 (Series 1)] | > 100 | > 100 | > 100 | > 10 | – | – | – | – | – | –
16 | Cc1cn(C2OC(CO)C(C)C2F)c(=O)[nH]c1=O (stereo not shown) [Compound 22 (Series 2)] | > 100 | > 100 | > 100 | > 10 | – | – | – | > 100 | – | –
17 | CNC1C(CO)OC(n2ccc(N)nc2=O)C1F (stereo not shown) [Compound 70 (Series 2)] | > 100 | > 100 | 2.4 | ≤ 10 | – | – | – | 109 | potent inhibitors | potent inhibitors
18 | Cc1cn(C2OC(CO)C(CO)C2F)c(=O)[nH]c1=O (stereo not shown) [Compound 1 (Series 2)] | > 100 | – | > 100 | > 10 | – | – | – | – | – | –
